Measured values: patent US8470526B2, “Method of suppressing human immunodeficiency virus (HIV) replication in a subject by administering a liver X receptor (LXR) agonist” (The George Washington University, priority 2005, dated 2013)

Columns and labels:
Type in all cases: cell-based
[1] = system: HIV-1 ADA; assay: Infectivity of virions from HIV-1 ADA-infected macrophages on indicator P4-CCR5 cells; details: TO-901317 500 nM from day 7 after infection for 7 more days; virions adjusted according to p24; versus virions from untreated cells
Method: (§1) Human monocyte-derived macrophages were infected with HIV-1 ADA or mock-infected, and 7 days after infection were treated or not with LXR agonist, TO-901317 (500 nM), for 7 more days.
B—Virions were collected from culture supernatants of LXR agonist-treated and untreated (control) cells on day 10 and day 14 (pooled together), adjusted according to p24 content and analyzed for infectivity on indicator P4-CCR5 cells. Experiment was performed in triplicate and results (mean±SD) are presented as percent infectivity of virions produced by control cells; *p<0.001.
(§2) To determine whether impairment of cholesterol efflux has a role in HIV biology, we compared infectivity of HIV virions produced from monocyte-derived macrophages stimulated or not with an LXR agonist, TO-901317. We hypothesized that if impairment of cholesterol efflux is a specific mechanism to increase HIV replication, then agents counteracting this effect should have anti-HIV activity. […] Virions were collected from TO-901317-treated and untreated cells, adjusted according to p24 content, and analyzed for infectivity using indicator P4-CCR5 cells.
Infectivity assay. Virus infectivity was analyzed using P4-CCR5 indicator cells that express B-galactosidase under control of HIV-1 LTR. […] The plate was incubated at 37° C. for 1.5 hours and OD readings were taken at 420 nm.

[2] = system: Human monocyte-derived macrophages infected with HIV-1 ADA; assay: Cholesterol efflux to apoA-I from HIV-1 ADA-infected monocyte-derived macrophages; details: TO-901317 500 nM added at day 7 after infection, kept 7 more days; efflux measured on day 21 after infection
Method: as §1
A—Cholesterol efflux to apoA-I was measured on day 21 after infection. *p<0.01 (versus uninfected cells not treated with TO-901317), *p<0.01 (versus HIV-infected cells not treated with TO-901317).
as §2, with “activity. LXR agonists up-regulate expression of ABCA1 at a transcriptional level and stimulate cholesterol efflux from various cell types, including human monocyte-derived macrophages ([47] and FIG. 9A).” for “activity.”
Cholesterol and phospholipid efflux from RAW264.7 cells. […] For cholesterol efflux analysis, aliquots of medium and cells were counted. […] The efflux was calculated as radioactivity in the medium/(radioactivity in the medium+radioactivity remaining in the cells)×100%. […]

[3] = system: HIV-1 ADA virions; assay: Analysis of virion-associated cholesterol ([3H]cholesterol incorporation into virions); details: virions from macrophages treated with 500 nM TO-901317 versus untreated cells; normalized according to p24
Method: C—Incorporation of [^3H]cholesterol into virions produced by LXR agonist-treated and untreated (control) cells was measured in triplicate and results (mean±SD) are presented relative to cholesterol in the virions produced by control cells; *p<0.001.
as §2, with “activity. LXR agonists up-regulate expression of ABCA1 at a transcriptional level and stimulate cholesterol efflux from various cell types, including human monocyte-derived macrophages ([47] and FIG. 9A).” for “activity.”
Analysis of virion-associated cholesterol. […] Culture supernatants were collected every 3 days over the period of 2 weeks, pooled, and virions were pelleted by ultracentrifugation, normalized according to p24 value, and the amount of incorporated [^3H]cholesterol counted on a beta-counter.

O=S(=O)(c1ccccc1)N(CC(F)(F)F)c1ccc(C(O)(C(F)(F)F)C(F)(F)F)cc1 [TO-901317]
reduction of infectivity of virions produced from macrophages treated with LXR agonist [1]: about 80% | effect on impairment of cholesterol efflux to apoA-I by HIV-1 infection [2]: prevented the impairment of cholesterol efflux | virion-associated cholesterol [3]: significantly diminished
